Measured values: ChEMBL document CHEMBL1133779, “A refined 3-dimensional QSAR of cytochrome P450 2C9: computational predictions of drug interactions” (J Med Chem, 2000)

molecular target: T1, Cytochrome P450 2C9 (Homo sapiens, UniProt P11712); assay: Binding affinity for human Cytochrome P450 2C9; format: ADME
T1 sequence (P11712 whole entry): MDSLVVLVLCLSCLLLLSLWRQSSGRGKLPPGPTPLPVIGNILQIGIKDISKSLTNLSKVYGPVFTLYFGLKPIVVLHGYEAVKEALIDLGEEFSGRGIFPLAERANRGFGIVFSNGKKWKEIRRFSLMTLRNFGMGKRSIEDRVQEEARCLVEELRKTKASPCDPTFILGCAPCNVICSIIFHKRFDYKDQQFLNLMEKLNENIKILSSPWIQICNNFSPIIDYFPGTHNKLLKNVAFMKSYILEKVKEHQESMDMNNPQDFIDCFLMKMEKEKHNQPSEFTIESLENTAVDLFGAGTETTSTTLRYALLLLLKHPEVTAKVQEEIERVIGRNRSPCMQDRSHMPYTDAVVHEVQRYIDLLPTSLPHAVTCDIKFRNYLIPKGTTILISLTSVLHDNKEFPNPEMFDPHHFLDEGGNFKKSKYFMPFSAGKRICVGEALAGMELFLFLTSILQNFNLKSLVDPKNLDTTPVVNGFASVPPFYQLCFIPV

With `COc1oc2ccccc2c(=O)c1[C@H](CC(C)=O)c1ccccc1` the Ki was 29 µM.

molecular target: T1, Cytochrome P450 2C9; assay: Binding affinity was measured on Cytochrome P450 2C9; format: ADME

In order of falling Ki:
1. CC1(O)C[C@@H](c2ccccc2)c2c(c3ccccc3oc2=O)O1 (stereo partly specified)  25 µM
2. CO[C@]1(C)C[C@@H](c2ccccc2)c2c(c3ccccc3oc2=O)O1  20 µM
3. CC[C@H](c1ccccc1)c1c(O)oc2ccccc2c1=O (stereo in doubt; 9)  18 µM
4. CC[C@H](c1ccccc1)c1c(OC)oc2ccccc2c1=O  14 µM
5. CC[C@H](c1ccccc1)c1c(OC)c2ccccc2oc1=O  13 µM
6. COc1c([C@H](CC(C)=O)c2ccccc2)c(=O)oc2ccccc12 (stereo in doubt; 14)  10 µM
7. CC1(O)C[C@H](c2ccccc2)c2c(c3ccccc3oc2=O)O1 (stereo partly specified)  7 µM
8. CO[C@@]1(C)C[C@@H](c2ccccc2)c2c(c3ccccc3oc2=O)O1 (stereo in doubt; 4)  7 µM
9. CC[C@@H](c1ccccc1)c1c(OC)c2ccccc2oc1=O  6 µM
10. C[C@@H](O)C[C@H](c1ccccc1)c1c(O)oc2ccccc2c1=O  3 µM
11. C[C@H](O)C[C@@H](c1ccccc1)c1c(O)oc2ccccc2c1=O  3 µM
12. [N-]=[N+]=Nc1ccc2oc(O)c(Cc3c(O)oc4ccc(N=[N+]=[N-])cc4c3=O)c(=O)c2c1  3 µM
13. COc1c([C@H](CC(C)=O)c2ccccc2)c(=O)oc2ccccc12 (stereo in doubt; 15)  2.4 µM
14. CO[C@@]1(C)C[C@H](c2ccccc2)c2c(c3ccccc3oc2=O)O1  1.5 µM
15. C#Cc1ccc2oc(O)c(C(C(C)=O)c3ccccc3)c(=O)c2c1 (stereo unspecified)  1.5 µM
16. C#Cc1ccc2c(=O)c(C(C(C)=O)c3ccccc3)c(O)oc2c1 (stereo unspecified)  1.1 µM
17. CO[C@@]1(C)C[C@@H](c2ccccc2)c2c(c3ccccc3oc2=O)O1 (stereo in doubt; 6)  1.1 µM
18. CC[C@H](c1ccccc1)c1c(O)oc2ccccc2c1=O (stereo in doubt; 8)  0.5 µM
19. C[C@H](O)C[C@H](c1ccccc1)c1c(O)oc2ccccc2c1=O  0.4 µM
20. [N-]=[N+]=Nc1ccc(S(=O)(=O)Nc2ccnn2-c2ccccc2)cc1  0.4 µM
21. CC[C@@H](c1ccccc1)c1c(OC)oc2ccccc2c1=O  0.1 µM
22. C[C@@H](O)C[C@@H](c1ccccc1)c1c(O)oc2ccccc2c1=O  0.1 µM

molecular target: T1, Cytochrome P450 2C9; assay: Binding affinity measured on human cytochrome P450 2C9 (CYP2C9) enzyme

In order of rising Ki:
1. O=C(O)Cc1ccccc1Nc1cc(Cl)ccc1Cl  2 µM
2. O=S(=O)(Nc1ccnn1-c1ccccc1)c1ccccc1  2 µM
3. CC(=O)c1ccc(S(=O)(=O)Nc2ccnn2-c2ccccc2)cc1  2.4 µM
4. C#Cc1ccc(S(=O)(=O)Nc2cc(C)on2)cc1  3 µM
5. O=S(=O)(Nc1ccnn1-c1ccccc1)c1ccc(O)cc1  6 µM
6. C#Cc1ccc(S(=O)(=O)NC(=O)Nc2ccccc2)cc1  7 µM
7. Cc1ccc(C)c(OCC(C)(C)C(=O)O)c1  15 µM
8. C#Cc1ccc(S(=O)(=O)NC(=O)NCCCC)cc1  18 µM
9. C#Cc1ccc(C2(c3ccccc3)NC(=O)NC2=O)cc1 (stereo unspecified)  18 µM
10. COc1oc2ccccc2c(=O)c1[C@@H](CC(C)=O)c1ccccc1  21 µM
11. C#Cc1ccc(S(=O)(=O)NC(=O)NCc2ccccc2)cc1  25 µM
12. CC(C(=O)O)c1ccc(C(=O)c2cccs2)cc1 (stereo unspecified) [SUPROFEN]  45 µM
13. C#Cc1ccc(S(=O)(=O)NC(=O)NCC(C)C)cc1  48 µM
